In PubChem BioAssay (NCI):
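Briefly, cells in 96-well plates were exposed to five compound concentrations for 48 h, and endpoints were estimated by linear interpolation. The concentration for 50% growth inhibition is given as GI50. At the TGI there is no net growth.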

How the values were obtained:
Test in all cases: NCI tumour cell line growth inhibition, 48 h
[1] = test system: EKVX NSCLC
[2] = test system: M14 melanoma
[3] = test system: MDA-MB-435
[4] = test system: NCI-H23 lung
[5] = test system: RXF 393 renal
[6] = test system: SF-268 CNS
[7] = test system: SN12C renal
[8] = test system: SR leukemia
[9] = test system: LXFL 529 NSCLC
[10] = test system: SNB-78 CNS
[11] = test system: KM20L2 colon

O=C(Nc1ccccc1F)c1ccc(NC2=C(Cl)C(=O)N(Cc3ccccc3)C2=O)cc1
GI50 [1]: 16.6 µM
TGI [1]: 30.2 µM
GI50 [2]: 4.02 µM
TGI [2]: 17 µM
GI50 [3]: 3.07 µM
TGI [3]: 11.5 µM
GI50 [4]: 13 µM
TGI [4]: 25.7 µM
GI50 [5]: 5.09 µM
TGI [5]: 16.6 µM
GI50 [6]: 2 µM
TGI [6]: 5.2 µM
GI50 [7]: 1.98 µM
TGI [7]: 7.93 µM
GI50 [8]: 0.66 µM
TGI [8]: 2.46 µM

Cc1nc2ccc(NCCN(C)C)c3c(=O)c4cc(O)ccc4n1c23
TGI [9]: 11.1 µM
TGI [2]: 15.9 µM
TGI [3]: 13.7 µM
TGI [4]: 2.05 µM
TGI [6]: 5.43 µM
TGI [7]: 4.93 µM
TGI [8]: 0.248 µM

Cc1[nH]nc(C(=O)Nc2n[nH]c3ccccc23)c1[N+](=O)[O-]
GI50 [1]: > 100 µM
TGI [1]: > 100 µM
GI50 [2]: > 96.2 µM
TGI [2]: > 100 µM
GI50 [3]: > 100 µM
TGI [3]: > 100 µM
GI50 [4]: > 66.9 µM
TGI [4]: > 100 µM
GI50 [5]: > 100 µM
TGI [5]: > 100 µM
GI50 [6]: > 100 µM
TGI [6]: > 100 µM
GI50 [7]: > 100 µM
TGI [7]: > 100 µM
TGI [8]: > 49.3 µM

Oc1ccc(-c2nc3ccc4[nH]ncc4c3c3c2CCCC3)c2cccnc12
GI50 [1]: 0.329 µM
TGI [1]: 2.24 µM
GI50 [2]: 0.163 µM
TGI [2]: 2.21 µM
GI50 [3]: 0.148 µM
TGI [3]: 2.77 µM
GI50 [4]: 0.158 µM
TGI [4]: 1.66 µM
GI50 [5]: 0.266 µM
TGI [5]: 2.44 µM
GI50 [6]: 0.239 µM
TGI [6]: 5.24 µM
GI50 [7]: 0.206 µM
TGI [7]: 6.79 µM
GI50 [8]: 0.12 µM
TGI [8]: 7.79 µM

COc1cc(/C=C/C(=O)c2cc(OC)c(OC)c(OC)c2)cc(OC)c1OC
GI50 [1]: 2.63 µM
TGI [1]: 21.5 µM
GI50 [2]: 2.82 µM
TGI [2]: 12.7 µM
GI50 [3]: 2.28 µM
TGI [3]: 8.11 µM
GI50 [4]: 3.15 µM
TGI [4]: 13.7 µM
GI50 [5]: 2.81 µM
TGI [5]: 11.4 µM
GI50 [6]: 2.77 µM
TGI [6]: 10 µM
GI50 [7]: 4.02 µM
TGI [7]: 20.8 µM
GI50 [8]: 1.46 µM
TGI [8]: 8.41 µM

CN(C)CCNC(=O)c1cccc2c1nc(-c1ccccn1)c1ccccc12
TGI [1]: 65.2 µM
TGI [2]: 32.2 µM
TGI [4]: 30 µM
TGI [5]: 29.2 µM
TGI [6]: 61.6 µM
TGI [7]: > 100 µM
TGI [10]: 67.9 µM

C=C1C(=O)O[C@H]2[C@H]1CC/C(COC(=O)C(=O)c1cn(C)c3ccc(OC)cc13)=C\CC[C@@]1(C)O[C@@H]21
GI50 [1]: 8.19 µM
TGI [1]: 16.3 µM
GI50 [2]: 3.22 µM
TGI [2]: 8.27 µM
GI50 [3]: 3.83 µM
TGI [3]: 9.49 µM
GI50 [4]: 6.44 µM
TGI [4]: 12.4 µM
GI50 [5]: 2.02 µM
TGI [5]: 3.95 µM
GI50 [6]: 5.71 µM
TGI [6]: 12.5 µM
GI50 [7]: 6.1 µM
TGI [7]: 12.8 µM
GI50 [8]: 2.34 µM
TGI [8]: 42.5 µM

NC(=S)N/N=C(\C(=O)Nc1ccc(Cl)c(Cl)c1)C1=NN(c2ccccc2)C(c2cccc([N+](=O)[O-])c2)CC1=O (stereo unspecified)
TGI [1]: > 100 µM
TGI [11]: 46.8 µM
TGI [9]: 48.1 µM
TGI [2]: > 100 µM
TGI [4]: 46.9 µM
TGI [6]: > 100 µM
TGI [7]: 38.5 µM
TGI [10]: > 100 µM
TGI [8]: > 100 µM

O=C1CCC2CCOc3ccc(O)c1c32 (stereo unspecified)
TGI [1]: > 100 µM
TGI [11]: > 100 µM
TGI [2]: > 100 µM
TGI [4]: > 100 µM
TGI [5]: > 100 µM
TGI [6]: > 100 µM
TGI [7]: > 100 µM
TGI [10]: > 100 µM
TGI [8]: > 100 µM

Cc1ccc([Se][Se]c2ccc(C)cc2)cc1
TGI [11]: > 100 µM
TGI [9]: 31.7 µM
TGI [4]: > 100 µM
TGI [5]: > 100 µM
TGI [6]: 88.1 µM
TGI [7]: > 100 µM
TGI [10]: 87.6 µM

CC(C)(CCC(C)(C)c1ccccc1)c1ccccc1
TGI [1]: 32.4 µM
TGI [2]: 52.7 µM
TGI [3]: 49.9 µM
TGI [4]: 33.9 µM
TGI [5]: 27.5 µM
TGI [6]: 33.3 µM
TGI [7]: 32.7 µM
TGI [8]: 50 µM

Oc1ccc(SCc2ccc(NCc3ccccc3)cc2)cc1
TGI [1]: 50.3 µM
TGI [2]: 44.5 µM
TGI [3]: > 100 µM
TGI [4]: > 100 µM
TGI [5]: 78.8 µM
TGI [6]: > 100 µM
TGI [7]: 64.6 µM
TGI [8]: 47.6 µM

Nc1c(O)c(S(=O)(=O)O)c(O)c2c1C(=O)c1ccccc1C2=O
GI50 [1]: 3.09 µM
TGI [1]: > 100 µM
GI50 [2]: 3.95 µM
TGI [2]: > 100 µM
GI50 [3]: 3.33 µM
TGI [3]: > 100 µM
GI50 [4]: 2.82 µM
TGI [4]: 9.88 µM
GI50 [5]: 3.37 µM
TGI [5]: > 100 µM
GI50 [6]: 3.44 µM
TGI [6]: > 100 µM
GI50 [7]: 3.29 µM
TGI [7]: 11.6 µM
GI50 [8]: 2.03 µM
TGI [8]: 7.17 µM

CCc1nc(N)nc(N)c1-c1ccc(Cl)c(N=NN(C)C)c1
TGI [1]: > 95.2 µM
TGI [2]: 58.9 µM
TGI [3]: > 92.1 µM
TGI [4]: > 100 µM
TGI [5]: > 100 µM
TGI [6]: > 100 µM
TGI [7]: > 100 µM
TGI [8]: 44.8 µM

O=C1CC(c2c[nH]c3ccccc23)C(=O)N1c1ccccc1 (stereo unspecified)
TGI [1]: > 100 µM
TGI [11]: > 100 µM
TGI [9]: > 100 µM
TGI [2]: > 100 µM
TGI [4]: > 100 µM
TGI [5]: > 100 µM
TGI [10]: > 100 µM

CC1=N/C(=C\c2ccc([N+](=O)[O-])cc2)C(=O)O1
TGI [1]: > 100 µM
TGI [11]: > 100 µM
TGI [9]: > 100 µM
TGI [2]: > 100 µM
TGI [4]: > 100 µM
TGI [5]: > 100 µM
TGI [6]: > 100 µM
TGI [7]: > 100 µM
TGI [10]: > 100 µM

COc1ccc2c(c1)C(=O)c1c-2n(CCCCl)c(=O)c2cc(N(C)C)ccc12
GI50 [1]: > 100 µM
TGI [1]: > 100 µM
GI50 [2]: > 100 µM
TGI [2]: > 100 µM
GI50 [3]: 81.8 µM
TGI [3]: > 100 µM
GI50 [4]: > 100 µM
TGI [4]: > 100 µM
GI50 [5]: 25.5 µM
TGI [5]: 90.7 µM
GI50 [6]: 33.3 µM
TGI [6]: > 100 µM
GI50 [7]: 49.8 µM
TGI [7]: > 100 µM
GI50 [8]: 19.9 µM
TGI [8]: > 100 µM

C#CC#CC#CC#CC#CC#CC#CC#CCC1OC[C@H](COC(=O)O[C@@H](C(=O)O[C@H]2C[C@@]3(O)[C@@H](OC(=O)c4ccccc4)[C@@H]4[C@]5(OC(C)=O)CO[C@@H]5C[C@H](O)[C@@]4(C)C(=O)[C@H](OC(C)=O)C(=C2C)C3(C)C)[C@@H](NC(=O)c2ccccc2)c2ccccc2)O1 (stereo partly specified)
GI50 [1]: > 33.3 µM
TGI [1]: > 33.3 µM
GI50 [2]: 0.386 µM
TGI [2]: 3.59 µM
GI50 [3]: 0.044 µM
TGI [3]: 0.109 µM
GI50 [4]: 0.888 µM
TGI [4]: > 33.3 µM
GI50 [5]: 1.25 µM
TGI [5]: > 15.3 µM
GI50 [6]: 0.992 µM
TGI [6]: > 33.3 µM
GI50 [7]: 1.34 µM
TGI [7]: > 33.3 µM
GI50 [8]: 0.182 µM
TGI [8]: > 33.3 µM
